According to ChEMBL document CHEMBL5291721, “A preclinical secondary pharmacology resource illuminates target-adverse drug reaction associations of marketed drugs” (Nat Commun, 2023):

How the values were obtained:
Acetylcholinesterase = Acetylcholinesterase (Homo sapiens, UniProt P22303); assay type: functional
[1] = molecular target: T1, Alpha-2A adrenergic receptor (Homo sapiens, UniProt P08913)
T1 sequence (P08913 whole entry): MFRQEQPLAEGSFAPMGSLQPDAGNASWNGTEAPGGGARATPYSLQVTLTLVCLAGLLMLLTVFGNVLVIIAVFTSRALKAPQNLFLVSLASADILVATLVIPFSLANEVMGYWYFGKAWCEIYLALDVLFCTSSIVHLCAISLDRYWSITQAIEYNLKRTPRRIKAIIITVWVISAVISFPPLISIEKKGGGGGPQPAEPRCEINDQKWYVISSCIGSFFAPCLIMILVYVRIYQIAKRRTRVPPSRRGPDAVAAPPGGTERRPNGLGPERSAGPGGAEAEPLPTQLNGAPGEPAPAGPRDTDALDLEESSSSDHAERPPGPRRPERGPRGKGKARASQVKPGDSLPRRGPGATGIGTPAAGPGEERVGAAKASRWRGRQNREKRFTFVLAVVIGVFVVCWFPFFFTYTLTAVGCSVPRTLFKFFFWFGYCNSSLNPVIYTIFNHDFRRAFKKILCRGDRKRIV

[2] = molecular target: T2, Muscarinic acetylcholine receptor M2 (Homo sapiens, UniProt P08172)
T2 sequence (P08172 whole entry): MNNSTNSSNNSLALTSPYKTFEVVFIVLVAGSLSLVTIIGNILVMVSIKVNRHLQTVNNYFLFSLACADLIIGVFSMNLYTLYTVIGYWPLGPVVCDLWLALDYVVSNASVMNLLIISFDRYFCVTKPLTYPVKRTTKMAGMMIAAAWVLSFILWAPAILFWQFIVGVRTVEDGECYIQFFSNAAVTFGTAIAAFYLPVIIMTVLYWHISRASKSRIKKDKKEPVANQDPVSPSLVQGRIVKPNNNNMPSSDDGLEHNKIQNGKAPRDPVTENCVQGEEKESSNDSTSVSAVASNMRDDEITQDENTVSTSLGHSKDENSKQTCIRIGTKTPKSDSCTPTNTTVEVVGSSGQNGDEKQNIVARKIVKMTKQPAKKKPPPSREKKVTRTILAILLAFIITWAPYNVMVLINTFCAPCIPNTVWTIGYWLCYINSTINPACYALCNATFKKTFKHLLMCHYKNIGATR

D(3) dopamine receptor = D(3) dopamine receptor (Homo sapiens, UniProt P35462)
Prothrombin = Prothrombin (Homo sapiens, UniProt P00734); assay type: functional
[3] = molecular target: T3, 5-hydroxytryptamine receptor 1A (Homo sapiens, UniProt P08908)
T3 sequence (P08908 whole entry): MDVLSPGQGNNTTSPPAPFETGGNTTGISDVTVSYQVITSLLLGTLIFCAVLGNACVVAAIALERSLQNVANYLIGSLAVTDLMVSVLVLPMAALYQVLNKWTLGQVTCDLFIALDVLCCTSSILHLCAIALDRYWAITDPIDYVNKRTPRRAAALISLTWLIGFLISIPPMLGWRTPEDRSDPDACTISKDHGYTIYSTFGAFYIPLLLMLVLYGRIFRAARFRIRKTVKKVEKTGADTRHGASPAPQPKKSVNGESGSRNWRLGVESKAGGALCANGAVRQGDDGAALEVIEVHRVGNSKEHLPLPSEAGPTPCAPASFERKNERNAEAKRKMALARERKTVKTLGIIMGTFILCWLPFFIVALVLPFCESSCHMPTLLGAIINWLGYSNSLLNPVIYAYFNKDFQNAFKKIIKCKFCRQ

[4] = molecular target: Voltage-gated inwardly rectifying potassium channel KCNH2 (Homo sapiens, UniProt Q12809); assay type: functional; conditions: read-out: AC50
Voltage-gated inwardly rectifying potassium channel KCNH2, sequence (Q12809 whole entry): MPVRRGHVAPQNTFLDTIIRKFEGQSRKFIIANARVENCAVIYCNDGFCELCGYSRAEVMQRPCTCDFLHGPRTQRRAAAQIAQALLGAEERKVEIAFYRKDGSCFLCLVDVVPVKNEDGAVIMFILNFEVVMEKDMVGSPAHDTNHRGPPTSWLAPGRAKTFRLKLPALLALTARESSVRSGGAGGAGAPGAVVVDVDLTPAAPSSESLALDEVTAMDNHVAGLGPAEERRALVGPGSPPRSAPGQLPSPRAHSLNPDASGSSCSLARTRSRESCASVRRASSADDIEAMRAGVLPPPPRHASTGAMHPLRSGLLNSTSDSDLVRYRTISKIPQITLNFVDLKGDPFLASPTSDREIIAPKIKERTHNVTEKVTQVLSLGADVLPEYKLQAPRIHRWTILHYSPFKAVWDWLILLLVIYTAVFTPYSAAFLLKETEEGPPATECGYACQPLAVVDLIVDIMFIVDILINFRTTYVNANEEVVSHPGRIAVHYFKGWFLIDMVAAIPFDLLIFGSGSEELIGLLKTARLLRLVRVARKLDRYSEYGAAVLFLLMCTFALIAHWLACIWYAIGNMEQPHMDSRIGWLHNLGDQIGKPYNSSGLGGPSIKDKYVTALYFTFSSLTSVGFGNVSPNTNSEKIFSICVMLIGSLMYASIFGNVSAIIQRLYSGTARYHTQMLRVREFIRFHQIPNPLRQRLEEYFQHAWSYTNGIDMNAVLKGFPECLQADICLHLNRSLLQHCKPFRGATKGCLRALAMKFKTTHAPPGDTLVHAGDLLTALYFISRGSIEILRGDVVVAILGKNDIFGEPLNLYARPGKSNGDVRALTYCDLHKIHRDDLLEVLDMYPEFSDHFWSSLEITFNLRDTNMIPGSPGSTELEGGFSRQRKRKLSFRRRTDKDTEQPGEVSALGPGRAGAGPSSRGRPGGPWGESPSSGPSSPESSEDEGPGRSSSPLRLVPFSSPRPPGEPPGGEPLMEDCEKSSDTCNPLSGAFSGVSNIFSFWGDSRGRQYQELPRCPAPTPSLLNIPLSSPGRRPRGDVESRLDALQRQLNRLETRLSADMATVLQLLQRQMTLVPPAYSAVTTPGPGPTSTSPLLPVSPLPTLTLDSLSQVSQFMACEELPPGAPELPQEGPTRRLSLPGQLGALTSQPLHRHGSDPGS

[5] = molecular target: Vascular endothelial growth factor receptor 2 (Homo sapiens, UniProt P35968); assay type: functional
Vascular endothelial growth factor receptor 2, sequence (P35968 whole entry): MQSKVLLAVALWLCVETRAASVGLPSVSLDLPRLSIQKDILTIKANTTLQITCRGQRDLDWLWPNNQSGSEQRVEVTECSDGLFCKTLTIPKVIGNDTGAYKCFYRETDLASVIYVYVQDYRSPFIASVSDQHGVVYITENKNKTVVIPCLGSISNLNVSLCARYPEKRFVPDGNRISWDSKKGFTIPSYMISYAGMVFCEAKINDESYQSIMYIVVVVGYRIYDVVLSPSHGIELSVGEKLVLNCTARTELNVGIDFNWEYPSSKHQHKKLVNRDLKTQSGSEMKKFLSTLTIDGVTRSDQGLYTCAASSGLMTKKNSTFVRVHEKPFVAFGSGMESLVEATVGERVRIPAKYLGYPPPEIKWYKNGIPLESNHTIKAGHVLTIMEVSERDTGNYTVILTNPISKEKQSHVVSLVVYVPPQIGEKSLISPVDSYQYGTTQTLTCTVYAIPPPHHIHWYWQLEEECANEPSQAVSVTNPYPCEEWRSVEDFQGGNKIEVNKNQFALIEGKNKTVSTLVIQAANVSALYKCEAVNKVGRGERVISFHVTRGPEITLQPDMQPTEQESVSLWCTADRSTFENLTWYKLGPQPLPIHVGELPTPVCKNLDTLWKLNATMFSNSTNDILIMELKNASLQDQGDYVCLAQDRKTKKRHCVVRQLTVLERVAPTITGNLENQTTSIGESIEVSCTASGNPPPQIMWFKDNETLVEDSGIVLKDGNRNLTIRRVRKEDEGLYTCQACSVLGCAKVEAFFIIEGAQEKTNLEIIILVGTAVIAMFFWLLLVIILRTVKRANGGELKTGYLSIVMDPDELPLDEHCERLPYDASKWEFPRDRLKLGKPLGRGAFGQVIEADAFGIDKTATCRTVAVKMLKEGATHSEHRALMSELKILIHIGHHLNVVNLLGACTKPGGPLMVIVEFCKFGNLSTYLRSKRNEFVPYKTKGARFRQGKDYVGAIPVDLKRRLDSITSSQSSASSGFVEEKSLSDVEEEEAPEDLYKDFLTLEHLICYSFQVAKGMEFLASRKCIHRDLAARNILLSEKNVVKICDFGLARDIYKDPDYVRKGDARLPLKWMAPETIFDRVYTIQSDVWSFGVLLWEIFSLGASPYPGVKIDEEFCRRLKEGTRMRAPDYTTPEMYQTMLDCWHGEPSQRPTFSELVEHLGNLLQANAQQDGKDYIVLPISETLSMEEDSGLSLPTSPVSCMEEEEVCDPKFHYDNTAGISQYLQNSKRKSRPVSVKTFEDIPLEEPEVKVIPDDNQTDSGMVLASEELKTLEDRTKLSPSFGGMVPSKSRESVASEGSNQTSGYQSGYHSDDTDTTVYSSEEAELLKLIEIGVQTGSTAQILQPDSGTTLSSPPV

[6] = molecular target: T4, Amine oxidase [flavin-containing] A (Homo sapiens, UniProt P21397); assay type: functional
T4 sequence (P21397 whole entry): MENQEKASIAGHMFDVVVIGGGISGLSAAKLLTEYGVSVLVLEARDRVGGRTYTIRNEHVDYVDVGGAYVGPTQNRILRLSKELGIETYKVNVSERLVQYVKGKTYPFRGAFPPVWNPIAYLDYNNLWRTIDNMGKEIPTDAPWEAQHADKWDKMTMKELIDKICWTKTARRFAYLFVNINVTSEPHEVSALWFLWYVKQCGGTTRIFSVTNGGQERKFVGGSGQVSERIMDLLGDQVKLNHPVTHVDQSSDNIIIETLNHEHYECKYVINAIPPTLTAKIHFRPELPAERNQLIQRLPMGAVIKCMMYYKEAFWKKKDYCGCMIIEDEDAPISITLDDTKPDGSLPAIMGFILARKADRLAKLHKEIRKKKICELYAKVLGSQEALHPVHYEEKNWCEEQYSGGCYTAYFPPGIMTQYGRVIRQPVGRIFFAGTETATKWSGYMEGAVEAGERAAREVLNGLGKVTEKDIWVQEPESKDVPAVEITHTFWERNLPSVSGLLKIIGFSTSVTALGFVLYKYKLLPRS

[7] = molecular target: cGMP-inhibited 3',5'-cyclic phosphodiesterase 3A (Homo sapiens, UniProt Q14432); assay type: functional
cGMP-inhibited 3',5'-cyclic phosphodiesterase 3A, sequence (Q14432 whole entry): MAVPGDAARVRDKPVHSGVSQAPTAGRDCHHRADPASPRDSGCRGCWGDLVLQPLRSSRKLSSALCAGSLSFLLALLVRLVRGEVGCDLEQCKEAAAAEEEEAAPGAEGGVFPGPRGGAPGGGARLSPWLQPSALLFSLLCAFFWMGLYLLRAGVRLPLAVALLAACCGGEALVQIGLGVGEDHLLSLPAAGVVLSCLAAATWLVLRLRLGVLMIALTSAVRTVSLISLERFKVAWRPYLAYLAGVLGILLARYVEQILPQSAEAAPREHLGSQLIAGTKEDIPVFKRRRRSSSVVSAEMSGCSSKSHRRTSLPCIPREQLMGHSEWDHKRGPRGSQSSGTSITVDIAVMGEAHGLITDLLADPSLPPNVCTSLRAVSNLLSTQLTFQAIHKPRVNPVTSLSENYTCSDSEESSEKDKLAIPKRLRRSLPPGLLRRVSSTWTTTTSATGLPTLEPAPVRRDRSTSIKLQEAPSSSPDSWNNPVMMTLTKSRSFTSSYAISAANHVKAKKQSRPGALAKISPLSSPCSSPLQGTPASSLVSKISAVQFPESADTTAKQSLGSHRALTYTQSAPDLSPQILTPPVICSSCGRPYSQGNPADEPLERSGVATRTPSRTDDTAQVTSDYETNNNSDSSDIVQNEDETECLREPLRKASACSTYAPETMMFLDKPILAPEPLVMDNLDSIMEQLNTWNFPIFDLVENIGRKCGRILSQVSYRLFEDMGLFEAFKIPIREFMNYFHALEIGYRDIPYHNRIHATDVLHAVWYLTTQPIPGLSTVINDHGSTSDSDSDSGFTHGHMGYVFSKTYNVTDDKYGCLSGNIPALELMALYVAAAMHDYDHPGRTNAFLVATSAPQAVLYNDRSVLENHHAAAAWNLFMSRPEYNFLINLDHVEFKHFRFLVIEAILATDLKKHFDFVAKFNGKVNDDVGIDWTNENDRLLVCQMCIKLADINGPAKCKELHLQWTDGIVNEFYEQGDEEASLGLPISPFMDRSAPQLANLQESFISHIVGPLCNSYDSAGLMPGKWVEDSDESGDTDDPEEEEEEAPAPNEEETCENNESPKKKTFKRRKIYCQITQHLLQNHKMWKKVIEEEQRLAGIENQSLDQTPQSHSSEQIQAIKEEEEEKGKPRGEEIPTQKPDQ

[8] = molecular target: 3',5'-cyclic-AMP phosphodiesterase 4A (Homo sapiens, UniProt P27815); assay type: functional
[9] = molecular target: T5, Prostaglandin G/H synthase 1 (Homo sapiens, UniProt P23219); assay type: functional
T5 sequence (P23219 whole entry): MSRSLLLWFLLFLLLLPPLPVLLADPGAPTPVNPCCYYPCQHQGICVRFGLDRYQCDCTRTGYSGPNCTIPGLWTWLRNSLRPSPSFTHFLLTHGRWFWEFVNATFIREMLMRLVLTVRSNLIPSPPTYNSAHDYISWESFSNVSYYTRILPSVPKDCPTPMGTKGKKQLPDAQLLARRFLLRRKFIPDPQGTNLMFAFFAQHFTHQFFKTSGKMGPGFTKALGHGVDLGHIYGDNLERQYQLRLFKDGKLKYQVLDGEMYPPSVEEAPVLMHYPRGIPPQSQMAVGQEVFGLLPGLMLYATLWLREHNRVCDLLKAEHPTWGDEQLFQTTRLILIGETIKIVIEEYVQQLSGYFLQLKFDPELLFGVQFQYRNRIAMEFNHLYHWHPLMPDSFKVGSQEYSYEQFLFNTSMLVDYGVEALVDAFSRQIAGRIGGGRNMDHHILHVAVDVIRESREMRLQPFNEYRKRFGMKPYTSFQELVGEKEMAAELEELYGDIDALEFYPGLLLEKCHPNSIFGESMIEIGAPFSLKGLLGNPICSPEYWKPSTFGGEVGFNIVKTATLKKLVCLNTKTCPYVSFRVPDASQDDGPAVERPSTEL

[10] = molecular target: T5, Prostaglandin G/H synthase 1; assay type: functional; remark: listed apart in the source
[11] = molecular target: Sodium-dependent noradrenaline transporter (Homo sapiens, UniProt P23975)
Thromboxane A2 receptor = molecular target: T6, Thromboxane A2 receptor (Homo sapiens, UniProt P21731); assay type: functional, cell-based
T6 sequence (P21731 whole entry): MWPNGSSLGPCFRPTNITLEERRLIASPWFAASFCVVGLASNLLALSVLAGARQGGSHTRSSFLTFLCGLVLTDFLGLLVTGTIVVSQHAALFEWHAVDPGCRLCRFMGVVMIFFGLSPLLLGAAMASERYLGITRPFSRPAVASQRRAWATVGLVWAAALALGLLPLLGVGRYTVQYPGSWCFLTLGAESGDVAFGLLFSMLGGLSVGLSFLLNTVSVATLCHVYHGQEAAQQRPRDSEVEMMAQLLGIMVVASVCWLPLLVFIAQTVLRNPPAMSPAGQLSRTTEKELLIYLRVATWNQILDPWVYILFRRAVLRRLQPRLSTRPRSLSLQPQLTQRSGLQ
Also: assay procedure not described here.

Acetylcholinesterase, sequence (P22303 whole entry): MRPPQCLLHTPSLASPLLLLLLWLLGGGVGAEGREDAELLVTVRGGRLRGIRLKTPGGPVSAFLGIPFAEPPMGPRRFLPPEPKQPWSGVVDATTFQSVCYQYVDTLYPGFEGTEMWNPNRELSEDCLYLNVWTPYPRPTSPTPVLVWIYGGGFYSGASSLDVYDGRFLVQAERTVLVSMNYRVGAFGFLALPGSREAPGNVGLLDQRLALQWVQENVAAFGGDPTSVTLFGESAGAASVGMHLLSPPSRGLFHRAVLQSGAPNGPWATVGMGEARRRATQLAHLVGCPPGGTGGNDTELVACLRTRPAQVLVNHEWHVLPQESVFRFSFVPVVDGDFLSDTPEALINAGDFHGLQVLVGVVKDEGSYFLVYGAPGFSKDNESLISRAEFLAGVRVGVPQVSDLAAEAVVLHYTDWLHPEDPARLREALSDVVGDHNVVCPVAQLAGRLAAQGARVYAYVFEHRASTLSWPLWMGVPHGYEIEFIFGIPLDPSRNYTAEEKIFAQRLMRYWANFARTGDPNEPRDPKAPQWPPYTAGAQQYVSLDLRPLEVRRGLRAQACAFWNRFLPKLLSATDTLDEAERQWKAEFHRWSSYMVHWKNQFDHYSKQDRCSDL

Cc1ccc(Cl)c(Nc2ccccc2C(=O)O)c1Cl [MECLOFENAMIC ACID]
AC50 (Acetylcholinesterase): > 30 µM
AC50 [1]: > 30 µM
AC50 [2]: > 30 µM
AC50 (D(3) dopamine receptor): > 30 µM
AC50 (Prothrombin): > 30 µM
AC50 [3]: > 30 µM
AC50 [4]: > 30 µM
AC50 [5]: > 30 µM
AC50 [6]: > 30 µM
AC50 [7]: > 30 µM
AC50 [8]: 25.5 µM
AC50 [9]: 0.0142 µM
AC50 [10]: 0.0171 µM
AC50 [11]: > 30 µM
AC50 (Thromboxane A2 receptor): > 30 µM

CC(=O)OCC(=O)[C@@]1(OC(C)=O)[C@@H](C)C[C@H]2[C@@H]3C[C@H](F)C4=CC(=O)C=C[C@]4(C)[C@@]3(F)[C@@H](O)C[C@@]21C [DIFLORASONE DIACETATE]
AC50 (Acetylcholinesterase): > 30 µM
AC50 [1]: > 30 µM
AC50 [2]: > 30 µM
AC50 (D(3) dopamine receptor): > 30 µM
AC50 (Prothrombin): > 30 µM
AC50 [3]: > 30 µM
AC50 [4]: > 30 µM
AC50 [5]: > 30 µM
AC50 [6]: > 30 µM
AC50 [7]: > 30 µM
AC50 [8]: > 30 µM
AC50 [9]: > 30 µM
AC50 [10]: > 30 µM
AC50 [11]: > 30 µM
AC50 (Thromboxane A2 receptor): > 30 µM

C#C[C@]1(OC(C)=O)CC[C@H]2[C@@H]3CCC4=CC(=O)CC[C@@H]4[C@H]3CC[C@@]21C [NORETHINDRONE ACETATE]
AC50 (Acetylcholinesterase): > 30 µM
AC50 [1]: > 30 µM
AC50 [2]: 9.44 µM
AC50 (D(3) dopamine receptor): > 30 µM
AC50 (Prothrombin): > 30 µM
AC50 [3]: > 30 µM
AC50 [4]: > 30 µM
AC50 [5]: > 30 µM
AC50 [6]: > 30 µM
AC50 [7]: > 30 µM
AC50 [8]: > 30 µM
AC50 [9]: > 30 µM
AC50 [10]: > 30 µM
AC50 [11]: 19.1 µM
AC50 (Thromboxane A2 receptor): > 30 µM

COc1ncnc(NS(=O)(=O)c2ccc(N)cc2)c1OC [SULFADOXINE]
AC50 (Acetylcholinesterase): > 30 µM
AC50 [1]: > 30 µM
AC50 [2]: > 30 µM
AC50 (D(3) dopamine receptor): > 30 µM
AC50 (Prothrombin): > 30 µM
AC50 [3]: > 30 µM
AC50 [4]: > 30 µM
AC50 [5]: > 30 µM
AC50 [6]: > 30 µM
AC50 [7]: > 30 µM
AC50 [8]: > 30 µM
AC50 [9]: > 30 µM
AC50 [10]: > 30 µM
AC50 [11]: > 30 µM
AC50 (Thromboxane A2 receptor): > 30 µM

CO[C@H]1/C=C/O[C@@]2(C)Oc3c(C)c(O)c4c(c3C2=O)C2=NC3(CCN(CC(C)C)CC3)NC2=C(NC(=O)/C(C)=C\C=C\[C@H](C)[C@H](O)[C@@H](C)[C@@H](O)[C@@H](C)[C@H](OC(C)=O)[C@@H]1C)C4=O [RIFABUTIN]
AC50 (Acetylcholinesterase): > 30 µM
AC50 [1]: > 30 µM
AC50 [2]: > 30 µM
AC50 (D(3) dopamine receptor): > 30 µM
AC50 (Prothrombin): > 30 µM
AC50 [3]: > 30 µM
AC50 [4]: > 30 µM
AC50 [5]: > 30 µM
AC50 [6]: > 30 µM
AC50 [7]: > 30 µM
AC50 [8]: > 30 µM
AC50 [9]: 17.7 µM
AC50 [10]: 17.4 µM
AC50 [11]: > 30 µM
AC50 (Thromboxane A2 receptor): > 30 µM

C[C@@H]1O[C@@H](O[C@H]2C[C@@H](O)[C@]3(CO)[C@H]4[C@H](O)C[C@]5(C)[C@@H](C6=CC(=O)OC6)CC[C@]5(O)[C@@H]4CC[C@]3(O)C2)[C@H](O)[C@H](O)[C@H]1O [OUABAIN]
AC50 (Acetylcholinesterase): > 30 µM
AC50 [1]: > 30 µM
AC50 [2]: > 30 µM
AC50 (D(3) dopamine receptor): > 30 µM
AC50 (Prothrombin): > 30 µM
AC50 [3]: > 30 µM
AC50 [4]: > 30 µM
AC50 [5]: > 30 µM
AC50 [6]: > 30 µM
AC50 [7]: > 30 µM
AC50 [8]: > 30 µM
AC50 [9]: > 30 µM
AC50 [10]: > 30 µM
AC50 [11]: > 30 µM
AC50 (Thromboxane A2 receptor): > 30 µM
